Assay results as given in US20220009906A1, “ISOINDOLIN-1-ONE DERIVATIVES USEFUL AS GRK2 INHIBITORS” (priority 2020, published 2022).

Molecular target: T1, GRK2 (Homo sapiens, UniProt P25098)
T1 sequence (P25098 1-689): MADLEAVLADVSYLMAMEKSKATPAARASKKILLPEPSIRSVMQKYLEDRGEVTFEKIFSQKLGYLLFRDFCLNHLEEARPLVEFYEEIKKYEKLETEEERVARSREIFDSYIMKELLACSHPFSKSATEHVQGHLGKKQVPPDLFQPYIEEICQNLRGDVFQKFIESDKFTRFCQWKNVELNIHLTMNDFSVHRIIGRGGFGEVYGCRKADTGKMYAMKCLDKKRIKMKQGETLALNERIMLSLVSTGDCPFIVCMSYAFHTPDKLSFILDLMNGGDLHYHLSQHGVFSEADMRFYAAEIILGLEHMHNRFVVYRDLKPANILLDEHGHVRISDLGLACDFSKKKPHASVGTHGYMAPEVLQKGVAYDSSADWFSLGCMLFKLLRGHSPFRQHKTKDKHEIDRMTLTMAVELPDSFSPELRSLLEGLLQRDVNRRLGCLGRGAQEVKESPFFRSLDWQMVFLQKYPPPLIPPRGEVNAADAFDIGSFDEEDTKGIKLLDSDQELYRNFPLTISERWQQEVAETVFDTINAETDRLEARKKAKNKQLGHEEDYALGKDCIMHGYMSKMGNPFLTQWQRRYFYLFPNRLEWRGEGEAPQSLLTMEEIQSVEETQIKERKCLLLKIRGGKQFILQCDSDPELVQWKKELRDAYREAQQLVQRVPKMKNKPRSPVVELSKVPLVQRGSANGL
Assay: hGRK2 LANCE Ultra In Vitro Assay
Assay type: biochemical
Conditions: Biological Example 1 GRK2 Lancer IC50 (μM), 10 nM GRK2; 30 or 600 μM ATP (not stated which); multiple measurements listed individually
Experimental: hGRK2 LANCE Ultra In Vitro Assay
G-protein coupled receptor kinases (GR Kinases) desensitize activated G-protein coupled receptors (GPCRs), by phosphorylation of cytoplasmic loops or carboxyl-terminal tails of GPCRs. GRK2 is one of the 6 different GR kinases and is implicated in heart failure and diabetes.
This assay is sensitive and requires as low as 10 nM enzyme, in a total volume of 10 μL. In addition, the ATP concentration can be varied over a broad range, without interfering with the assay or changing the assay condition. […] Testing inhibitors routinely at both high and low ATP concentrations also enables identification of potential non-ATP competitive inhibitors.
Paroxetine was used as the reference compound in this assay.
Test compounds were dissolved in DMSO at 1 mM and were 3-fold serial diluted. The compound DMSO solutions were then added (100 nL) into a plate well using an acoustic dispenser. To each well was then added 20 nM GRK2 (5 μL) in assay buffer (20 mM HEPES, pH 7.5, 10 mM MgCl2, 0.001% Tween-20®). The plate was sealed and centrifuged at 1000 rpm for 1 min. The plate and wells containing a mixture of GRK2 and test compound were incubated at ambient temperature for 30 min (prior to initializing the enzymatic reaction).
Enzyme reactions were initiated by the addition of 4.9 μL Substrates/Eu-Ab mix to each well. […] Final concentrations of reagents in the assays were as follows: 20 mM HEPES, pH 7.5; 10 mM MgCl2; 0.001% Tween-20® (w/v); 30 or 600 μM ATP; 200 nM ULight-peptide; 4 nM Eu-Ab; 10 nM GRK2; and 1% DMSO.
The plates were sealed and centrifuged at 1000 rpm for 1 min. For reactions at low ATP concentration (30 μM), reaction mixtures were incubated at ambient temperature for 120 min. For reactions at high ATP concentration (600 μM), reaction mixtures were incubated at ambient temperature for 60 min.
The enzyme reactions were quenched by addition of 10 μL of 12 mM EDTA in 1× LANCE detection solution to each well. The plates were then incubated at ambient temperature for 30 min. Time-resolved fluorescence signal of reactions were read on an EnVision or PHERAstar plate reader with the following parameters: Excitation wavelength=337 nm; emission wavelength (donor)=620 nm; emission wavelength (acceptor)=665 nm.
The raw HTRF data were converted to % active as follows:
% active=(sample−NC)/(PC−NC)*100
where NC is the mean of negative control (reactions without GRK2), and PC is the mean of positive control (reactions with GRK2 but without inhibitor). IC50 values were determined from a 4-parameter fit, using the following equation:
Y=Bottom+(Top−Bottom)/(1+10^((Log IC50−X)*Hill slope))
where X=log10 of the compound concentration.

| Structure (SMILES) | IC50 |
| --- | --- |
| COc1cccc(CN2C(=O)c3cc(-c4cn[nH]c4)ccc3C2Cc2nn[nH]n2)c1 (stereo not shown) [Compound 93, 3-((2H-tetrazol-5-yl)methyl)-2-(3-methoxybenzyl)-6-(1H-pyrazol-4-yl)isoindolin-1-one] | 0.02 µM |
| COc1ccnc(CN2Cc3ccc(-c4cn[nH]c4)cc3C2=O)c1 [Compound 105] | 0.071 µM |
| COc1cccc(-c2cc(-c3cn[nH]c3)cc3c2CN([C@H](C)c2cccc(OC)c2)C3=O)c1 [Compound 140, (R)-4-(3-methoxyphenyl)-2-(1-(3-methoxyphenyl)ethyl)-6-(1H-pyrazol-4-yl)isoindolin-1-one] | 0.265 µM |
| COc1cccc(C(CO)N2Cc3c(cc(-c4cn[nH]c4)cc3-c3cccc(O)c3)C2=O)c1 (stereo not shown) [Compound 143, 2-(2-hydroxy-1-(3-methoxyphenyl)ethyl)-4-(3-hydroxyphenyl)-6-(1H-pyrazol-4-yl)isoindolin-1-one] | 0.005 µM |
| CCOc1cccc(CN2C(=O)c3cc(-c4c[nH]nn4)ccc3C2(C)C)c1 [Compound 39, 2-(3-Ethoxybenzyl)-3,3-dimethyl-6-(1H-1,2,3-triazol-4-yl)isoindolin-1-one] | 0.196 µM |
| COC(=O)COc1cccc(CN2Cc3ccc(-c4ccnc5[nH]ccc45)cc3C2=O)c1 [Compound 54] | 0.292 µM |
| O=C(Nc1ccc(F)c(F)c1)c1cccc(CN2Cc3ccc(-c4cn[nH]c4)cc3C2=O)c1 [Compound 34] | 0.006 µM |
| CCOc1cccc([C@@H](C)N2Cc3ccc(-c4ccnc5[nH]ccc45)cc3C2=O)c1 [Compound 167] | > 20 µM |
| COc1ccc(OC)c(C(CO)N2Cc3ccc(-c4cn[nH]c4)cc3C2=O)c1 (stereo not shown) [Compound 52, 2-(1-(2,5-dimethoxyphenyl)-2-hydroxyethyl)-6-(1H-pyrazol-4-yl)isoindolin-1-one] | 0.742 µM |
| COc1cccc(CN2C(=O)c3cc(-c4cn[nH]c4)ccc3C23CCC(O)C3O)c1 (stereo not shown) [Compound 102, 2,3-dihydroxy-2′-(3-methoxybenzyl)-5′-(1H-pyrazol-4-yl)spiro[cyclopentane-1,1′-isoindolin]-3′-one] | 0.006 µM |
| COc1cccc([C@@H](C(=O)O)N2Cc3ccc(-c4cn[nH]c4)cc3C2=O)c1 [Compound 169] | 0.542 µM |
| COc1cccc(C(CO)N2Cc3c(cc(-c4cn[nH]c4)cc3-c3ccncc3)C2=O)c1 (stereo not shown) [Compound 133, 2-(2-Hydroxy-1-(3-methoxyphenyl)ethyl)-6-(1H-pyrazol-4-yl)-4-(pyridin-4-yl)isoindolin-1-one] | 0.021 µM |
| Cc1cnccc1CNC(=O)c1cccc(CN2C(=O)c3cc(-c4cn[nH]c4)ccc3C23CCCC3)c1 [Compound 134, N-((3-methylpyridin-4-yl)methyl)-3-((3′-oxo-5′-(1H-pyrazol-4-yl)spiro[cyclopentane-1,1′-isoindolin]-2′-yl)methyl)benzamide] | 0.003 µM |
| CNC1CCC2(C1)c1ccc(-c3cn[nH]c3)cc1C(=O)N2Cc1cccc(OC)c1 (stereo not shown) [Compound 118, 2′-(3-methoxybenzyl)-3-(methylamino)-5′-(1H-pyrazol-4-yl)spiro[cyclopentane-1,1′-isoindolin]-3′-one] | < 0.005 µM |
| COc1cccc(CN2Cc3ccc(-c4ccnc5[nH]ccc45)cc3C2=O)c1 [Compound 50] | 0.334 µM |
| COc1cccc([C@@H](C)N2Cc3c(cc(-c4cn[nH]c4)cc3-c3ccncc3)C2=O)c1 [Compound 121, (R)-2-(1-(3-methoxyphenyl)ethyl)-6-(1H-pyrazol-4-yl)-4-(pyridin-4-yl)isoindolin-1-one] | 0.01 µM |
| O=C1c2cc(-c3cn[nH]c3)ccc2CN1Cc1cccc(OC2COC2)c1 [Compound 91] | 0.116 µM |
| COC(=O)[C@H](c1cccc(OC)c1)N1Cc2ccc(-c3cn[nH]c3)cc2C1=O [Compound 72] | 0.13 µM |

Same assay, conditions: read-out: Biological Example 1 GRK2 Lancer IC50; 10 nM GRK2; 30 or 600 μM ATP (not stated which); multiple measurements listed individually

| Structure (SMILES) | IC50 |
| --- | --- |
| COc1cccc([C@@H](C)N2Cc3c(cc(-c4cn[nH]c4)cc3C3CCNC3)C2=O)c1 (stereo partly drawn) [Compound 144, 2-((R)-1-(3-methoxyphenyl)ethyl)-6-(1H-pyrazol-4-yl)-4-(pyrrolidin-3-yl)isoindolin-1-one] | 0.007 µM |
